Measurements reported in patent US20230140216A1, “COMBINATION THERAPY FOR TREATING MPS1” (GAIN THERAPEUTICS SA, priority 2020, published 2023).

How the values were obtained:
[1] = In vivo safety / IV maximum tolerated dose
[2] = test system: Patient-derived fibroblasts; test: Enzyme enhancement activity in combination with rhIDUA in patient-derived fibroblasts; type: cell-based, human
Description: Patient-derived fibroblasts were seeded at 4×10^4 cells per well in 12-well cell culture plates in Dulbecco’s Modified Eagle’s Media (DMEM) supplemented with 10% of fetal bovine serum (FBS), 1% penicillin/streptomycin (P/S) (Thermo Fisher Scientific, Waltham, MA, USA) and incubated at 37° C., 5% CO2 overnight for cell attachment. Subsequently, cells were incubated in the absence or presence of the compounds and/or 1.25 nM recombinant human α-L-iduronidase protein (obtained in the Institute of Biotechnology and Biomedicine in the UAB) for 4 days. After incubation, cells were washed with phosphate-buffered saline (“PBS”) and detached using Trypsin-EDTA solution (Sigma Aldrich, St. Louis, MO, USA) to prepare cell pellets. The pellets were stored at -80° C. until activity assays were performed. α-L-iduronidase activity in cell lysates was measured by using 4-methylumbelliferyl alpha-L-iduronide substrate (Glycosynth, Warrington, UK). Briefly, lysates were resuspended in 25 µL of 0.9% NaCl containing 0.01% triton X-100 lysis buffer to promote membrane disruption. The cell suspension was sonicated and centrifuged to remove insoluble materials. Then, lysates were mixed with 25 µL of 200 µM 4-MU- alpha-L-iduronide substrate in 0.4 M sodium formate pH 3.5 0.2% triton X-100 buffer for 60 min at 37° C. The reaction was terminated by adding 200 µL of 0.5 M Glycine/0.3M NaOH buffer pH=10. The liberated 4-MU was measured on a Glomax® Discover Microplate Reader from Promega with excitation at 340 nm and emission at 460 nm. Protein quantification was determined using Pierce BCA Protein Assay Kit (Thermo Fisher Scientific, Waltham, MA, USA). Measurements were interpolated in a 4-MU standard curve and normalized by protein quantity.
Compound A increases uptake of rhIDUA protein and its enzymatic activity under a wide range of conditions (rhIDUA concentration and cell-types). Benefits are particularly evident at longer incubation times (4 days).

[3] = biological target: T1, Aldurazyme (laronidase) IDUA activity in bone joint cartilage (Homo sapiens, UniProt P35475); test: IDUA assay in bone joint cartilage after i.v. Aldurazyme with or without compound; type: in vivo, C57BL/6 male mice; conditions: mice, compound i.v. + Aldurazyme 1.2 mg/kg i.v.
T1 construct: purchased Aldurazyme; host or cells: administered i.v. to C57BL/6 male mice
T1 sequence (P35475 26-653 limits assumed): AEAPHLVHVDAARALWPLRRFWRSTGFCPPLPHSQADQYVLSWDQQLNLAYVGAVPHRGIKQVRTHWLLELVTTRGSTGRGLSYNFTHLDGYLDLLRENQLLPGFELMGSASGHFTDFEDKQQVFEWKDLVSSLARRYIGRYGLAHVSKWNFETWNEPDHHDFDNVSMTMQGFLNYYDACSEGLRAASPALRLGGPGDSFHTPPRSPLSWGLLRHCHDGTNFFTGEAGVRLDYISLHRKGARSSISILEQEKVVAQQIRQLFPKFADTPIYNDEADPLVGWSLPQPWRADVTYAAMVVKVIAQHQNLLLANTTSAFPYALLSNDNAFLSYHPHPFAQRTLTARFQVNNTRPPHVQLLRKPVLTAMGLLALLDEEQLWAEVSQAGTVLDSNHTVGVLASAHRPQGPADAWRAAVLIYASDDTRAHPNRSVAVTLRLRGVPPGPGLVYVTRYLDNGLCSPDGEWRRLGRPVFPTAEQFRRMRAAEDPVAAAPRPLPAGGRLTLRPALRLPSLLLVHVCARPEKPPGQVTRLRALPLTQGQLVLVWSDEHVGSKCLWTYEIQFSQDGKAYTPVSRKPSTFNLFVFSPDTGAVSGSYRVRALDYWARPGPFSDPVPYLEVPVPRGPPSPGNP
Description: Evaluation of IDUA activity in mouse bone joint cartilage samples obtained from BIO-PCY-19-025 study, where C57BL/6 male mice were administered with 1.2 mg/kg Aldurazyme (i.v. bolus administration) in the presence and absence of Compound A.
Groups Details: • G1: Vehicle 2 +Aldurazyme (1.2 mg/kg,i.v.,) QD×1(n=6) [vehicle 2:NMP (5%) + Solutol HS-15 (5%) + Normal saline (45%) + PEG-400 (45%)]; • G2: Compound A (5 mg/kg, i.v.) + Aldurazyme (1.2 mg/kg, i.v.) QD x 1 (n=6); • G3: Compound A (10 mg/kg, i.v.) + Aldurazyme (1.2 mg/kg, i.v.) QD x 1 (n=6); • G4: Compound A (20 mg/kg, i.v.) + Aldurazyme (1.2 mg/kg, i.v.) QD x 1 (n=6); and • G5: Naïve Control (n=6).
Bone joint cartilage samples from mice were collected at indicated time points. Tissues were homogenized in RIPA buffer, protein was extracted was diluted in water. Total protein was estimated using Bradford reagent. 25 µl of tissue homogenate and plasma samples were added to 25 µl of 0.18 mM of 4 MUI substrate and incubated at 37° C. for 30 min. Reaction was terminated using 200 µl of stop solution (0.3 M Glycine and 0.2 M sodium carbonate, pH 10.4). Plate was read at excitation 355 nm and emission 460 nm. […]
IDUA activity was assessed from 4-MU standard curve. […] Final IDUA enzyme activity was expressed as nmols/mg of protein/hr. Data was analyzed using GraphPad prism software with one way ANOVA followed by Dunnett’s comparison test. […]

In the case of `CCN(CC(=O)Nc1c(Cl)cccc1Cl)Cc1nc2ccsc2c(=O)[nH]1` [Compound A], the “safety at tested doses” value ([1]; i.v., all doses tested) is reported as “safe at all doses tested”, the MTD ([1]; mouse, in vivo, iv) is reported as 45 mg/kg and the “activity across a panel of patient-derived fibroblasts” value ([2]; 96h) is reported as “active across a panel of patient-derived fibroblasts”. For the same molecule, the “amount of α-L-iduronidase in fibroblasts” value ([2]; 96h) was “increases the amount of α-L-iduronidase in fibroblasts”, the EC50 ([2]; Homo sapiens, Fibroblast, fibroblasts, 96h, co-administration with rhIDUA, read-out: cell-based EC50 (IDUA activity/uptake with rhIDUA)) was 16 µM and the “IDUA cell uptake on co-administration” value ([2]; Hurler-Scheie fibroblasts, 50 µM compound, 96h, vs. single agent) was “marked increase of IDUA cell uptake”. The “effect versus incubation time” value ([2]; fibroblasts) was “increases at longer incubation times” and the “IDUA enzymatic activity in bone joint cartilage” value [3] was “increases IDUA enzymatic activity in a panel of tissues”.
